Results reported in patent US9902702B2, “Spirocycloheptanes as inhibitors of rock” (BRISTOL-MYERS SQUIBB COMPANY, priority 2014, dated 2018).

Target: ROCK2 (Homo sapiens, UniProt O75116)
Assay: ROCK assay: phosphorylation of FITC peptide substrate, LABCHIP 3000 mobility shift
Format: biochemical
Conditions: 5 μM ATP, 1.5 μM peptide substrate; read-out: ROCK2 Activity (ROCK IC50 range)
How it was run: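 IC50 values come from curve-fitting percent kinase inhibition across a compound dilution series. The reaction is started with Rho kinase variant in HEPES pH 7.5 buffer with MgCl2, Brij-35 and DTT, with 5 μM ATP, 1.5 μM FITC-labelled peptide and under 2% DMSO. After EDTA quench, product and substrate are separated by microfluidic mobility shift.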

Chain of ROCK2 (O75116 whole entry, species assumed): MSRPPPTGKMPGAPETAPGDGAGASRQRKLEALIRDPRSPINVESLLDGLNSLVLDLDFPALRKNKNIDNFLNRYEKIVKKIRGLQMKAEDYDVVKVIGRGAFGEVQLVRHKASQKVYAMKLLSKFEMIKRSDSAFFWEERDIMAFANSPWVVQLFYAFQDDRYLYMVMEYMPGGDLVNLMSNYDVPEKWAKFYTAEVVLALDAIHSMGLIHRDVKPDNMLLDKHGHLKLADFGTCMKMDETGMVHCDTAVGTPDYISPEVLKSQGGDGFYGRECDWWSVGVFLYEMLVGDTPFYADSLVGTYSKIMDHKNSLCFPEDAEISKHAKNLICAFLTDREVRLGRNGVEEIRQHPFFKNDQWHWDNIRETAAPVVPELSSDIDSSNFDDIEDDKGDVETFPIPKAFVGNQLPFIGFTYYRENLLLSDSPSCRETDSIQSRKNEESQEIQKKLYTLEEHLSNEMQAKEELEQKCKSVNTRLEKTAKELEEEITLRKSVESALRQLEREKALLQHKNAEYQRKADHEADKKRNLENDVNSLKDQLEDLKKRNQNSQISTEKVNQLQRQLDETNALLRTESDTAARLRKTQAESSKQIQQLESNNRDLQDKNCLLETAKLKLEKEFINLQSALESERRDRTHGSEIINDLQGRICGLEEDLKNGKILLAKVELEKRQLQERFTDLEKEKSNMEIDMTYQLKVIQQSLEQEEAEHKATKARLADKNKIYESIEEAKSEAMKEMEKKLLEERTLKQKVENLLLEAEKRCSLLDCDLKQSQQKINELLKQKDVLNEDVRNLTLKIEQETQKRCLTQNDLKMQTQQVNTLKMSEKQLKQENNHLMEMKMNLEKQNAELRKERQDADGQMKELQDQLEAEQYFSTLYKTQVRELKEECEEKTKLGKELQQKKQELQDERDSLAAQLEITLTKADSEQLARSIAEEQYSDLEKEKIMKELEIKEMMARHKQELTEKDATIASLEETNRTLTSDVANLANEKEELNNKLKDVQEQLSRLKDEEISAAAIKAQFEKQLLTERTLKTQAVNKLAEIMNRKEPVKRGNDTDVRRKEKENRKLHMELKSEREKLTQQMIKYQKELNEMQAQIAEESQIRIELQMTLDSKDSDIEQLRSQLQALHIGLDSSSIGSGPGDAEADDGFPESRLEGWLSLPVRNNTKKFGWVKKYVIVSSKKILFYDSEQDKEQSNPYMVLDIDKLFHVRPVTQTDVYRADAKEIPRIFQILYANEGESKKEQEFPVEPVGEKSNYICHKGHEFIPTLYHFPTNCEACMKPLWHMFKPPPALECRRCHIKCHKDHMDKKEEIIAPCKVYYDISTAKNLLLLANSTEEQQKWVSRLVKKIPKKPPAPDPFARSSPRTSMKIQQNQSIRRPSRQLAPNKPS

Row | SMILES | IC50 [nM]
1 | [H][C@]1(c2n[nH]c(=O)c3ccccc32)C[C@]2(C[C@@H](NC(=O)c3ccc4c(c3)ncn4C(C)C)C2)C1 (stereo partly drawn) [Example 307, 1-isopropyl-N-((aR)-6-(4-oxo-3,4-dihydrophthalazin-1-yl)spiro[3.3]heptan-2-yl)-1H-benzo[d] imidazole-5-carboxamide] | 5.1 to 15
2 | [H][C@]1(c2n[nH]c(=O)c3ccccc32)C[C@]2(C[C@@H](NC(=O)c3ccc4[nH]cnc4c3)C2)C1 (stereo partly drawn) [Example 308, N-((aR)-6-(4-oxo-3,4-dihydrophthalazin-1-yl)spiro[3.3]heptan-2-yl)-1H-benzo[d] imidazole-5-carboxamide] | 5.1 to 15
3 | [H][C@]1(c2n[nH]c(=O)c3ccccc32)C[C@]2(C[C@@H](NC(=O)c3ccc4[nH]c(C)nc4c3)C2)C1 (stereo partly drawn) [Example 309, 2-methyl-N-((aR)-6-(4-oxo-3,4-dihydrophthalazin-1-yl)spiro[3.3]heptan-2-yl)-1H-benzo[d] imidazole-5-carboxamide] | 15.1 to 100
4 | O=C(NC1CC2(C1)CC(c1n[nH]c(=O)c3ccccc13)C2)c1cnc2[nH]cnc2c1 [Example 310, N-((aR)-6-(4-oxo-3,4-dihydrophthalazin-1-yl)spiro[3.3]heptan-2-yl)-3H-imidazo[4,5-b]pyridine-6-carboxamide] | 15.1 to 100
5 | [H][C@]1(c2n[nH]c(=O)c3ccccc32)C[C@]2(C[C@@H](NC(=O)c3ccc(NC=O)c(O)c3)C2)C1 (stereo partly drawn) [Example 311, 4-formamido-3-hydroxy-N-((aR)-6-(4-oxo-3,4-dihydrophthalazin-1-yl)spiro[3.3]heptan-2-yl)benzamide] | 5.1 to 15
6 | [H][C@]1(c2n[nH]c(=O)c3ccccc32)C[C@]2(C[C@@H](NC(=O)c3cc4cccnc4[nH]3)C2)C1 (stereo partly drawn) [Example 312, N-((aR)-6-(4-oxo-3,4-dihydrophthalazin-1-yl)spiro[3.3]heptan-2-yl)-1H-pyrrolo[2,3-b]pyridine-2-carboxamide] | 5.1 to 15
7 | [H][C@]1(c2n[nH]c(=O)c3ccccc32)C[C@]2(C[C@@H](NC(=O)c3cc4ccc(Cl)cc4s3)C2)C1 (stereo partly drawn) [Example 313, 6-chloro-N-((aR)-6-(4-oxo-3,4-dihydrophthalazin-1-yl)spiro[3.3]heptan-2-yl)benzo[b] thiophene-2-carboxamide] | 5.1 to 15
8 | [H][C@]1(c2n[nH]c(=O)c3ccccc32)C[C@]2(C[C@@H](NC(=O)c3cc4ccc(OC)cc4n3C)C2)C1 (stereo partly drawn) [Example 314, 6-methoxy-1-methyl-N-((aR)-6-(4-oxo-3,4-dihydrophthalazin-1-yl)spiro[3.3]heptan-2-yl)-1H-indole-2-carboxamide] | 5.1 to 15
9 | [H][C@]1(c2n[nH]c(=O)c3ccccc32)C[C@]2(C[C@@H](NC(=O)c3ccc4nc(C)oc4c3)C2)C1 (stereo partly drawn) [Example 315, 2-methyl-N-((aR)-6-(4-oxo-3,4-dihydrophthalazin-1-yl)spiro[3.3]heptan-2-yl)benzo[d] oxazole-6-carboxamide] | 15.1 to 100
10 | [H][C@]1(c2n[nH]c(=O)c3ccccc32)C[C@]2(C[C@@H](NC(=O)c3ccc4cn[nH]c4c3)C2)C1 (stereo partly drawn) [Example 316, N-((aR)-6-(4-oxo-3,4-dihydrophthalazin-1-yl)spiro[3.3]heptan-2-yl)-1H-indazole-6-carboxamide] | 5.1 to 15
11 | [H][C@]1(c2n[nH]c(=O)c3ccccc32)C[C@]2(C[C@@H](NC(=O)c3ccc4c(c3)ncn4C)C2)C1 (stereo partly drawn) [Example 317, 1-methyl-N-((aR)-6-(4-oxo-3,4-dihydrophthalazin-1-yl)spiro[3.3]heptan-2-yl)-1H-benzo[d] imidazole-5-carboxamide] | 5.1 to 15
12 | [H][C@]1(c2n[nH]c(=O)c3ccccc32)C[C@]2(C[C@@H](NC(=O)c3cnc4ccccn34)C2)C1 (stereo partly drawn) [Example 318, N-((aR)-6-(4-oxo-3,4-dihydrophthalazin-1-yl)spiro[3.3]heptan-2-yl)imidazo[1,2-a]pyridine-3-carboxamide] | 5.1 to 15
13 | [H][C@]1(c2n[nH]c(=O)c3ccccc32)C[C@]2(C[C@@H](NC(=O)c3cc4cc(OCc5ccccc5)ccc4[nH]3)C2)C1 (stereo partly drawn) [Example 319, 5-(benzyloxy)-N-((aR)-6-(4-oxo-3,4-dihydrophthalazin-1-yl)spiro[3.3]heptan-2-yl)-1H-indole-2-carboxamide] | 15.1 to 100
14 | [H][C@]1(c2n[nH]c(=O)c3ccccc32)C[C@]2(C[C@@H](NC(=O)c3cc4ccc(F)cc4[nH]3)C2)C1 (stereo partly drawn) [Example 320, 6-fluoro-N-((aR)-6-(4-oxo-3,4-dihydrophthalazin-1-yl)spiro[3.3]heptan-2-yl)-1H-indole-2-carboxamide] | 5.1 to 15
15 | [H][C@]1(c2n[nH]c(=O)c3ccccc32)C[C@]2(C[C@@H](NC(=O)C3CCc4ccccc43)C2)C1 (stereo partly drawn) [Example 321, N-((aR)-6-(4-oxo-3,4-dihydrophthalazin-1-yl)spiro[3.3]heptan-2-yl)-2,3-dihydro-1H-indene-1-carboxamide] | 100 to 2100
16 | [H][C@]1(c2n[nH]c(=O)c3ccccc32)C[C@]2(C[C@@H](NC(=O)c3cc4cccc(C)c4[nH]3)C2)C1 (stereo partly drawn) [Example 322, 7-methyl-N-((aR)-6-(4-oxo-3,4-dihydrophthalazin-1-yl)spiro[3.3]heptan-2-yl)-1H-indole-2-carboxamide] | 2.01 to 5

Row | SMILES | IC50 [nM]
17 | [H][C@]1(c2n[nH]c(=O)c3ccccc32)C[C@]2(C[C@@H](NC(=O)C3NCc4ccccc43)C2)C1 (stereo partly drawn) [Example 323, N-((aR)-6-(4-oxo-3,4-dihydrophthalazin-1-yl)spiro[3.3]heptan-2-yl)isoindoline-1-carboxamide] | 100 to 2100
18 | O=C(N[C@H]1CC2(C1)C[C@H](c1n[nH]c(=O)c3ccccc31)C2)c1cc2ccccn2n1 (stereo partly drawn) [Example 325, N-((aR)-6-(4-oxo-3,4-dihydrophthalazin-1-yl)spiro[3.3]heptan-2-yl)pyrazolo[1,5-a]pyridine-2-carboxamide] | 5.1 to 15
19 | [H][C@]1(c2n[nH]c(=O)c3ccccc32)C[C@]2(C[C@@H](NC(=O)c3cc4ccccc4cn3)C2)C1 (stereo partly drawn) [Example 326, N-((aR)-6-(4-oxo-3,4-dihydrophthalazin-1-yl)spiro[3.3]heptan-2-yl)isoquinoline-3-carboxamide] | 2.01 to 5
20 | [H][C@]1(c2n[nH]c(=O)c3ccccc32)C[C@]2(C[C@@H](NC(=O)c3cc4cccc(O)c4[nH]3)C2)C1 (stereo partly drawn) [Example 327, 7-hydroxy-N-((aR)-6-(4-oxo-3,4-dihydrophthalazin-1-yl)spiro[3.3]heptan-2-yl)-1H-indole-2-carboxamide] | 2.01 to 5
21 | [H][C@]1(c2n[nH]c(=O)c3ccccc32)C[C@]2(C[C@@H](NC(=O)c3cc4cccc(Cl)c4[nH]3)C2)C1 (stereo partly drawn) [Example 328, 7-chloro-N-((aR)-6-(4-oxo-3,4-dihydrophthalazin-1-yl)spiro[3.3]heptan-2-yl)-1H-indole-2-carboxamide] | 2.01 to 5
22 | [H][C@]1(c2n[nH]c(=O)c3ccccc32)C[C@]2(C[C@@H](NC(=O)c3cc4ccc(F)c(C)c4[nH]3)C2)C1 (stereo partly drawn) [Example 329, 6-fluoro-7-methyl-N-((aR)-6-(4-oxo-3,4-dihydrophthalazin-1-yl)spiro[3.3]heptan-2-yl)-1H-indole-2-carboxamide] | 0.2 to 2
23 | [H][C@]1(c2n[nH]c(=O)c3ccccc32)C[C@]2(C[C@@H](NC(=O)c3ccc4ccccc4n3)C2)C1 (stereo partly drawn) [Example 330, N-((aR)-6-(4-oxo-3,4-dihydrophthalazin-1-yl)spiro[3.3]heptan-2-yl)quinoline-2-carboxamide] | 15.1 to 100
24 | [H][C@]1(c2n[nH]c(=O)c3ccccc32)C[C@]2(C[C@@H](NC(=O)c3ccc(Br)cc3)C2)C1 (stereo partly drawn) [Example 331, 4-bromo-N-((aR)-6-(4-oxo-3,4-dihydrophthalazin-1-yl)spiro[3.3]heptan-2-yl)benzamide] | 5.1 to 15
25 | [H][C@]1(c2n[nH]c(=O)c3ccccc32)C[C@]2(C[C@@H](NC(=O)c3cc4cccc(C(F)(F)F)c4[nH]3)C2)C1 (stereo partly drawn) [Example 332, N-((aR)-6-(4-oxo-3,4-dihydrophthalazin-1-yl)spiro[3.3]heptan-2-yl)-7-(trifluoromethyl)-1H-indole-2-carboxamide] | 0.2 to 2
26 | [H][C@]1(c2n[nH]c(=O)c3ccccc32)C[C@]2(C[C@@H](NC(=O)c3cc4cccc(F)c4[nH]3)C2)C1 (stereo partly drawn) [Example 333, 7-fluoro-N-((aR)-6-(4-oxo-3,4-dihydrophthalazin-1-yl)spiro[3.3]heptan-2-yl)-1H-indole-2-carboxamide] | 5.1 to 15
27 | [H][C@]1(c2n[nH]c(=O)c3ccccc32)C[C@]2(C[C@@H](NC(=O)c3cc4c(OC)ccc(OC)c4[nH]3)C2)C1 (stereo partly drawn) [Example 334, 4,7-dimethoxy-N-((aR)-6-(4-oxo-3,4-dihydrophthalazin-1-yl)spiro[3.3]heptan-2-yl)-1H-indole-2-carboxamide] | 5.1 to 15
28 | [H][C@]1(c2n[nH]c(=O)c3ccccc32)C[C@]2(C[C@@H](NC(=O)c3cc4cc(F)cc(S(C)(=O)=O)c4[nH]3)C2)C1 (stereo partly drawn) [Example 335, 5-fluoro-7-(methylsulfonyl)-N-((aR)-6-(4-oxo-3,4-dihydrophthalazin-1-yl)spiro[3.3]heptan-2-yl)-1H-indole-2-carboxamide] | 2.01 to 5
29 | [H][C@]1(c2n[nH]c(=O)c3ccccc32)C[C@]2(C[C@@H](NC(=O)c3cccc(-n4cccn4)c3)C2)C1 (stereo partly drawn) [Example 336, N-((aR)-6-(4-oxo-3,4-dihydrophthalazin-1-yl)spiro[3.3]heptan-2-yl)-3-(1H-pyrazol-1-yl)benzamide] | 15.1 to 100
30 | [H][C@]1(c2n[nH]c(=O)c3ccccc32)C[C@]2(C[C@@H](NC(=O)c3ccc(-c4cn[nH]c4)cc3)C2)C1 (stereo partly drawn) [Example 337, N-((aR)-6-(4-oxo-3,4-dihydrophthalazin-1-yl)spiro[3.3]heptan-2-yl)-4-(1H-pyrazol-4-yl)benzamide] | 5.1 to 15
31 | [H][C@]1(c2n[nH]c(=O)c3ccccc32)C[C@]2(C[C@@H](NC(=O)c3cccc(OCCN4CCOCC4)c3)C2)C1 (stereo partly drawn) [Example 338, 3-(2-morpholino-ethoxy)-N-((aR)-6-(4-oxo-3,4-dihydrophthalazin-1-yl)spiro[3.3]heptan-2-yl)benzamide] | 15.1 to 100
